Assay results taken from patent US6849442B1, “Biosensor materials and methods” (Cambridge University Technical Services Limited, priority 1997, dated 2005).

Legend:
R. corallina cells = details: for induction of catechol 2,3-dioxygenase activity: R. corallina, meta pathway marker; for ring cleavage dioxygenase pathway induced (meta / ortho): crude enzyme extracts of cells grown on MMRN supplemented with the xenobiotic
Method: (§1) “MMRN” is prepared as a multicomponent stock to avoid the production of uncharacterised compounds during autoclaving. A “basic salts” stock is prepared containing 6 g/L Na2HPO4; 3 g/L KH2PO4; 1 g/L NaCl; 4 g/L (NH4)2SO4; adjusted to pH 7.4 and made up to 989 mls with distilled water and autoclaved. A “100×A salts” solution is prepared consisting of 20 g/L MgSO4; 2000 mg/L FeSO4.7H2O; 200 mg/L FeCl3; 200 mg/L MnSO4.H2O is prepared in distilled water and autoclaved. A “1000×B salts” solution consisting of 500 mg/L ZnSO4.7H2O; 200 mg/L CuCl2·2H2O; 200 mg/L Na2B4O7.10H2O; 100 mg/L (NH4)7Mo6O24.4H2O is prepared in distilled water and autoclaved. To prepare 1 litre of MMRN, sterile solutions of 989 mls basic salts, 10 mls 100×A salts, 1 ml 1000×B salts are combined. For solid media, agar is added to 1.4% w/v. Carbon-energy sources are supplemented to 80 μM final concentrations for soluble molecules, or as vapour for insoluble molecules (where their concentration is decided by their individual partition coefficients generally ranging from 3 to 40 μM). Petri plates or liquid cultures are incubated at 28° C. to 30° C. for up to 72 hours to accumulate sufficient biomass for genetic and biochemical testing.

R. corallina [1] = test: Genetic induction of the toluene degradative pathway, substrate supplied as vapour; assay type: cell-based, Rhodococcus corallina; details: level in water
Method: as §1

R. corallina [2] = test: Growth-inducing substrate test on MMRN; assay type: cell-based, Rhodococcus corallina
Text: Mycolic acid-containing bacteria may then be screened for specific hydrocarbon-inducible catabolic pathways using MMRN supplemented with the target xenobiotic pollutant. Strains for which the target molecule is growth inducing may then be isolated and used to as a source of genetic regulatory elements for biosensors or as specific biocatalytic functions. Using this protocol mycolic acid containing bacteria have been and may be rapidly identified with novel and useful catabolic properties. This approach is also useful for identification and isolation of mycolic acid containing bacteria with biocatalytic properties.

Row | Compound | induction of catechol 2,3-dioxygenase activity (R. corallina cells) | ring cleavage dioxygenase pathway induced (meta / ortho) (R. corallina cells) | level at which genetic induction of the toluene degradative pathway occurs (R. corallina [1]) | acts as growth inducing substrate (R. corallina [2])
1 | Cc1ccccc1 [toluene] | induced | induced the meta pathway | less than 200 ppm | –
2 | O=C(O)c1ccccc1 [benzoate] | not | exclusively induces the ortho pathway | – | –
3 | Oc1ccccc1 [phenol] | – | exclusively induces the ortho pathway | – | –
4 | xylene | – | – | – | does not act as a growth inducing substrate
